The text below walks through data of patent US20110098358A1, “HUMAN BETA3 ADRENERGIC RECEPTOR LIGAND, AND FOOD OR PHARMACEUTICAL PRODUCT CONTAINING THE SAME” (RICOM CORPORATION, priority 2008, published 2011).

Where a name gives a salt, the structure may show the parent alone.

One assay has as its system brown adipocytes (BAT). The assay is described as follows: observation of cell morphology (BAT), fat accumulation and reaction to NE. Format: cell-based, rat. The following applies: 1 hour on last day. The procedure:
Using 4 types of rat primary preadipocytes (visceral fat, […], subcutaneous white fat and brown fat), the fat accumulation-suppressing effect and fat-releasing effect by the composition of the present invention were preliminarily studied in vitro. […] The test of the adrenergic β3 receptor binding activity was carried out by the above-mentioned method. The Preadipocyte Culture kit H-3 with 3 types of cells (primary, rat, Primary Cell Co., Ltd.: visceral preadipocytes (hereinafter referred to as VAC), Lot No. FIHA-FV; subcutaneous white preadipocytes (hereinafter referred to as […] preadipocytes (hereinafter referred to as EAC), FIHA-FE) and the Brown Adipocyte Culture kit F-8 (primary, rat, Primary Cell Co., Ltd.: Lot No. HDOA-1) were used. Cells seeded on a 24-well plate were cultured in a growth medium for 3 days, and the cells were confirmed to have become confluent. After replacing the medium with a differentiation induction medium, the culture was continued for 2 days, and the negative control substance and the test substance were prepared to a predetermined concentration with a maintenance medium, followed by addition of the prepared medium and 4 days of culture. The treatment with NE was carried out in the same manner as in VAC, using the maintenance medium. […]

Assay [1] relates to visceral preadipocytes (VAC). The assay is described as follows: observation of cell morphology (VAC), fat accumulation and reaction to NE. Format: cell-based, rat. The following applies: NE 1×10^−6 M, 6 hours on last day. The procedure: (§1) Using 4 types of rat primary preadipocytes (visceral fat, […], subcutaneous white fat and brown fat), the fat accumulation-suppressing effect and fat-releasing effect by the composition of the present invention were preliminarily studied in vitro. […] The test of the adrenergic β3 receptor binding activity was carried out by the above-mentioned method. The Preadipocyte Culture kit H-3 with 3 types of cells (primary, rat, Primary Cell Co., Ltd.: visceral preadipocytes (hereinafter referred to as VAC), Lot No. FIHA-FV; subcutaneous white preadipocytes (hereinafter referred to as […] preadipocytes (hereinafter referred to as EAC), FIHA-FE) and the Brown Adipocyte Culture kit F-8 (primary, rat, Primary Cell Co., Ltd.: Lot No. HDOA-1) were used. The 3 types of preadipocytes (visceral fat, […] subcutaneous white fat) were seeded into 12 wells in a 24-well plate at a cell number of 1.5×10^6 (1.2×10^5 cells/mL/well), followed by preculture for 4 days in the adipocyte differentiation medium. Thereafter (on day 4 after seeding), the negative control substance and the test substance were prepared to a predetermined concentration in a visceral fat differentiation medium, and the prepared medium was added to the cells. The medium was replaced on days 0, 2 and 4 after the addition of the test substance (days 4, 6 and 8 after seeding), while adding freshly prepared medium after the collection. […]

Assay [2] concerns subcutaneous white preadipocytes (SAC). The assay is described as follows: observation of cell morphology (SAC), fat accumulation and reaction to NE. Format: cell-based, rat. The following applies: NE 1×10^−6 M, 6 hours on last day. The procedure: as §1
In assay [3] the test system is periepididymal preadipocytes (EAC). The assay can be described thus: observation of cell morphology (EAC), fat accumulation and reaction to NE. Format: cell-based, rat. The following applies: NE 1×10^−6 M, 6 hours on last day. The procedure:
as §1

Assay [4] addresses T1, human recombinant adrenergic β3 receptor (Homo sapiens, UniProt P13945).
T1 construct: expressed in transfected cells; host or cells: HEK-293 cells
The assay can be described thus: adrenergic β3 receptor binding activity ([125I]cyanopindolol). The following applies: HEK-293 cells, 0.5 nM [125I]cyanopindolol, Tris buffer pH 7.4, 25° C., 90 minutes. The procedure: The adrenergic β3 receptor binding activity can be measured according to, for example, the method described in Cell Biology: Feve et al, Proc. Natl. Acad. Sci. USA 91 (1994), Vol. 91, pp. 5677-5681, using HEK-293 cells which express a human recombinant adrenergic β3 receptor. That is, a solution of a sample in 1% DMSO, and 0.5 nM [^125I]cyanopindolol are added to Tris buffer (pH 7.4), and the HEK-293 cells are cultured therein at 25° C. for 90 minutes, followed by filtration and washing of the cells, and measurement of the radioactivity of the adrenergic β3 receptor binding ligand.
Each component containing the components shown in Table 1 below was dissolved in DMSO to 1 w/v %, and the resulting solution was added to an adipocyte differentiation medium (Primary Cell Co., Ltd., Lot No. 080411) to a final concentration of 10 μg/mL before use. The test of the adrenergic β3 receptor binding activity was carried out by the above-mentioned method.

T1 sequence (P13945 whole entry): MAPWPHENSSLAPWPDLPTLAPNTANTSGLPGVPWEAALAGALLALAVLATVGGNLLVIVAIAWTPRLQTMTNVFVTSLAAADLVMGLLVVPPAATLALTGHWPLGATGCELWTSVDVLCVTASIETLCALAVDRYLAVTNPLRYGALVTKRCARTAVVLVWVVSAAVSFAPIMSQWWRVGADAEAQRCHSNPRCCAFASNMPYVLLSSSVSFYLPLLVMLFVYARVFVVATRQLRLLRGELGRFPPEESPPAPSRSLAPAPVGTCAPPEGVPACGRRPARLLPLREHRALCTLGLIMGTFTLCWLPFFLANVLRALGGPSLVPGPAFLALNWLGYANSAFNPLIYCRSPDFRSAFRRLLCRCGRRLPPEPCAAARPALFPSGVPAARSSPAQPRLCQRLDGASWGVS

Take `NC[C@H](O)c1ccc(O)c(O)c1` [NE, (−)-Norepinephrine(+)-bitartrate salt hydrate]: the “reaction by 1 hour of treatment with NE (morphology)” value in the assay on brown adipocytes (BAT) is “sufficiently confirmed”. For the same compound, the “reaction by treatment with NE (morphology)” value in assay [1] is “reaction by 6 hours of the treatment with NE was obtained”. For the same compound, the “reaction by the addition of NE (morphology)” value in assay [2] and in assay [3] was “reaction by the addition of NE was obtained” each time.
Regarding `CC/C=C\C/C=C\C/C=C\CCCCCCCC(=O)O` [compound 7, C18:3α], the “Binding activity (%)” value in assay [4] stood at 22%.
